This note sets out measurements from PubChem BioAssay AID449762 (Southern Research Specialized Biocontainment Screening …, 2010).

Broadly, the IC50 is the concentration that gives 50% inhibition. As usually defined, the IC90 is the concentration at which the effect reaches the 90% level.

In the assay the test system is M. tuberculosis H37Rv growth inhibition, 7H9 media. In words: M. tuberculosis growth inhibition, HTS (AID 449762).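 On all read-outs here: bacterial growth assessed after seven days of incubation.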 The settings on record: for IC90: measured here: IC90 growth inhibition.

Inconclusive results are not listed. A value given as a limit tells only on which side of the number the result lay.

For the compound `CCCCn1c(=O)c(C(=O)Nc2ncccc2C)c(O)c2ccccc21`, the IC50 is 10.3 µM and the IC90 was 15.8 µM.

In the case of `CC(C)[C@H](CO)N(Cc1cccc(F)c1)c1nc(Nc2cccc(Cl)c2)c2ncn(C(C)C)c2n1`, the concentration for half-maximal inhibition (IC50) is 23.2 µM and the IC90 stood at 35.4 µM.

Consider `O=c1cc(-c2ccccc2Cl)oc2ccc([N+](=O)[O-])c(O)c12`, for which the IC50 was 11.9 µM and the IC90 stood at 15.6 µM.

Turning to `Oc1ccc(C[C@H]2CNCCN2CCCCC2CCCCC2)cc1`, the IC50 is 31.5 µM and the IC90 was found to be 59.2 µM.

Take `COc1cccc(-c2nnc(NC(=O)c3ccc(S(=O)(=O)N4CCOCC4)cc3)o2)c1`: the 50% inhibitory concentration (IC50) was 23.6 µM and the IC90 worked out at 26.7 µM.

Take `COc1cc2c(cc1NC(=O)CN1C(=O)NC3(CCc4ccccc43)C1=O)oc1ccccc12` (stereo not drawn): the concentration for half-maximal inhibition (IC50) was 29.5 µM and the IC90 is over 100 µM.

Turning to `Cc1ccc(NC(=O)COc2ccccc2CNC(C)(C)CC(C)(C)C)cc1`, the IC50 is 22.6 µM and the IC90 is 29.8 µM.

`Cc1cc(C)nc(-n2nc(C)cc2NC(=O)CN2CCC(C)CC2)n1`: the IC50 is 6.86 µM and the 90% effect concentration (IC90) amounted to 16.9 µM.

On to `O=C(CSc1nc2ncc(Br)cc2[nH]1)Nc1ccc2c(c1)OCO2`, for which the IC50 was 6.01 µM and the IC90 was 16.1 µM.

As for `CC(C)(C)C(=O)/C(=C\c1cccc([N+](=O)[O-])c1)n1cncn1`, the IC50 was 1.51 µM and the 90% effect concentration (IC90) was 1.72 µM.

With `Cn1c2ccccc2c2cc(C(=O)NNC(=O)CCl)sc21`, the half-maximal inhibitory concentration (IC50) is 1.72 µM and the 90% effect concentration (IC90) stood at 3.91 µM.

As to `CCOc1cc(CNCCCN2CCOCC2)cc(Br)c1OCC(=O)Nc1cccc(C(F)(F)F)c1`, the IC50 was 22.1 µM and the concentration for an effect of 90% (IC90) came out at 31.7 µM.

On to `Cc1c(CN2CCC(CO)(Cc3cccc(C(F)(F)F)c3)CC2)c2ccccc2n1C`, for which the IC50 was 20.6 µM and the IC90 came to 28.9 µM.

As to `COc1ccc(/C(O)=C/Sc2nnc(Cc3ccccc3)o2)cc1`, the IC50 was 26.3 µM and the 90% effect concentration (IC90) was over 100 µM.

As to `OC(CN1CCCCC1)Cn1c2ccc(Cl)cc2c2cc(Cl)ccc21` (stereo not drawn), the IC50 was 8.94 µM and the concentration for an effect of 90% (IC90) worked out at 11.6 µM.

Turning to `O=C(COC(=O)C1CC2CCCC(C1)C2=O)NNC(=O)c1ccccc1F` (stereo not drawn), the IC50 was 9.47 µM and the IC90 was over 100 µM.

As for `COC(=O)CSc1[nH]c2ccc(Br)cc2c1[N+](=O)[O-]`, the IC50 was 5.64 µM and the IC90 is 9.31 µM.

`CN1CCN(c2ccc(C(=O)c3cn(-c4ccc(F)c(Cl)c4)nn3)cc2)CC1`: the 90% effect concentration (IC90) is over 100 µM.

With `Cc1cccc(CNc2ncnc3ccc(-c4ccc5c(c4)OCCO5)cc23)c1`, the IC50 was 5.93 µM and the 90% effect concentration (IC90) amounted to 6.77 µM.

On to `COc1ccc(CN2CCN(C(c3ccc(F)cc3)c3ccc(F)cc3)CC2)c(OC)c1OC`, for which the half-maximal inhibitory concentration (IC50) is 23.3 µM and the 90% effect concentration (IC90) stood at 26.3 µM.

As to `Cc1cc2nc(/N=C(\N)NC(=O)C(C)C)nc(C)c2cc1C`, the concentration for half-maximal inhibition (IC50) is 4.67 µM and the IC90 was determined as 61.2 µM.

In the case of `CCOc1ccc(Nc2cc(C)nc(-n3nc(C)cc3C)n2)cc1`, the IC50 is 0.7 µM and the IC90 worked out at 4.77 µM.

Take `CN(C)C(=O)c1ccc(NC(=O)COC(=O)c2cc3c(s2)CCCCC3)cc1`: the IC50 is 45.8 µM and the IC90 was over 100 µM.

As for `COC(=O)c1cc(=O)n(-c2ccc(F)cc2)c(=Nc2ccc(F)cc2)s1`, the IC50 is under 0.2 µM and the 90% effect concentration (IC90) came out at 1.86 µM.

`O=C(Oc1ccc2ccccc2c1)c1cncc(Br)c1`: the half-maximal inhibitory concentration (IC50) was 13 µM and the concentration for an effect of 90% (IC90) was 60.3 µM.

As to `CCOc1ccc(/C=N/Nc2ccc(Cl)nn2)c(O)c1`, the IC50 is 4.49 µM and the concentration for an effect of 90% (IC90) turned out to be 7.48 µM.

`CCOC(=O)c1ccc(N=Cc2nc3ccccc3n2C)cc1`: the IC50 is 63.5 µM and the 90% effect concentration (IC90) is over 100 µM.

`CCCCn1cnc2c(c(-c3ccccc3)c(-c3ccccc3)n2Cc2ccco2)c1=N`: the IC50 was 75.3 µM and the concentration for an effect of 90% (IC90) was determined as 97.4 µM.

On to `COC(=O)C1=C(C)N(Cc2ccccc2)C(=NCc2cccc(Cl)c2)N[C@H]1c1ccccc1`, for which the concentration for half-maximal inhibition (IC50) was 16.5 µM and the concentration for an effect of 90% (IC90) worked out at 21 µM.

Take `COc1ccc(Cl)cc1C(=O)O/N=C(\N)c1ccccn1`: the IC50 was 25.4 µM and the 90% effect concentration (IC90) is over 100 µM.

With `O=c1oc2ccccc2c2c1nc(C(F)(F)F)n2-c1ccccc1`, the IC50 was 4.39 µM and the IC90 was 31.1 µM.

For the compound `CCOc1ccc(-n2c(O)c(/C=N/Nc3nnc(C)c(=O)[nH]3)c3ccccc3c2=O)cc1`, the concentration for half-maximal inhibition (IC50) is 11.3 µM and the concentration for an effect of 90% (IC90) is over 100 µM.

In turn, `O=C(O)Cc1c[nH]c2ccc(O)cc12` registered an IC90 of over 100 µM.

In the case of `O=C(NNc1nc(-c2ccccc2)cs1)c1ccccc1`, the 50% inhibitory concentration (IC50) was 7.6 µM and the IC90 is over 100 µM.

For the compound `OCC1(Cc2cccc(Cl)c2)CCCN(Cc2ccc3cc(F)ccc3n2)C1` (stereo not drawn), the concentration for half-maximal inhibition (IC50) is 45.8 µM and the IC90 worked out at 52.1 µM.

With `CCCn1nnc(NC(=O)COc2ccc(CC)cc2)n1`, the half-inhibitory concentration (IC50) was 29.7 µM and the IC90 was over 100 µM.

As to `O=C(N/N=C/c1c(F)c(F)c(F)c(F)c1F)c1cccc(S(=O)(=O)N2CCOCC2)c1`, the concentration for an effect of 90% (IC90) is over 100 µM.

`CC(C)(C)c1ccc(C(=O)NC(=S)NNC(=O)COc2ccccc2)cc1`: the 50% inhibitory concentration (IC50) was 3.39 µM and the concentration for an effect of 90% (IC90) was 8.56 µM.

Regarding `O=C(NC1CCCCC1)C(c1ccc2ncccc2c1)N(Cc1ccco1)C(=O)c1ccc2c(c1)OCCO2` (stereo not drawn), the IC50 is 92.7 µM and the concentration for an effect of 90% (IC90) is over 100 µM.

Regarding `COc1ccc(C(=O)Cn2nc(CNc3ccc(Br)cc3)[n+]3c2CCCCC3)cc1`, the IC50 is 9.77 µM and the IC90 was 13.7 µM.

For `Cc1ccccc1C(=O)Nc1ccc(N(C)C)c2ccccc12`, the IC50 is 16.6 µM and the IC90 is over 100 µM.

In the case of `O=C1c2ccccc2S(=O)(=O)c2cc(C(=O)N3CCN(c4c(Cl)cncc4Cl)CC3)ccc21`, the 50% inhibitory concentration (IC50) is 32 µM and the 90% effect concentration (IC90) stood at 46.5 µM.

For `Cn1c(=O)c(C(=O)NNC(=O)c2cccc(Cl)c2)c(O)c2ccccc21`, the IC50 was 0.8 µM and the IC90 stood at 1.28 µM.

On to `O=C(NCc1ccc2c(c1)OCO2)c1c(O)nc2sccn2c1=O`, for which the 50% inhibitory concentration (IC50) is 40 µM and the 90% effect concentration (IC90) was over 100 µM.

With `Cc1ccc(C)c(NC(=O)c2cc(-c3ccccc3)nn2-c2ccccc2)c1`, the IC50 was 34.9 µM and the IC90 is 59.6 µM.

As for `Cn1nc([N+](=O)[O-])nc1Sc1ccc(C(C)(C)C)cc1`, the IC50 is 6.13 µM and the IC90 was 7.62 µM.

In the case of `S=C(NCCN1CCOCC1)N/N=C/c1cccs1`, the IC50 was 5.55 µM and the IC90 came to 6.22 µM.

On to `C/C(=N\N=C(/N)SC1CC(=O)N(c2ccc(Cl)cc2)C1=O)c1cccs1` (stereo not drawn), for which the IC50 was 33 µM and the concentration for an effect of 90% (IC90) is over 100 µM.

Consider `Cc1ccc(-c2ccnc(=S)[nH]2)cc1`, for which the IC50 is 44.9 µM and the IC90 was over 100 µM.

For `Cc1ccc(OC(=O)c2oc3ccc(F)cc3c2C)c(C)c1`, the IC50 was 6.82 µM and the concentration for an effect of 90% (IC90) was 18.6 µM.

With `CO[C@@H]1[C@@H](OC(N)=O)[C@@H](O)C(Oc2ccc3c(O)c(NC(=O)c4ccc(O)c(CC=C(C)C)c4)c(=O)oc3c2C)OC1(C)C` (stereo partly drawn), the half-maximal inhibitory concentration (IC50) is 4.98 µM and the 90% effect concentration (IC90) was 9.66 µM.

Consider `Cc1ccc(/C=C2\C(=O)Nc3ccccc32)o1`, for which the IC50 was 3.54 µM and the concentration for an effect of 90% (IC90) stood at 6.03 µM.

For `CCc1c(C)sc(NC(=S)N2CCN(CC)CC2)c1C(=O)OC`, the IC50 is 12.7 µM and the concentration for an effect of 90% (IC90) was over 100 µM.

On to `CCCCC(=O)Nc1sc2c(c1C(=O)OCC)CCC(C=O)=C2Cl`, for which the 50% inhibitory concentration (IC50) is 14.6 µM and the IC90 was 44.5 µM.

`COc1ccc(C(C[N+](=O)[O-])c2c(-c3ccccc3)cc3ccccn23)c(OC)c1` (stereo not drawn): the IC50 was 14.9 µM and the IC90 is 38.6 µM.

As to `COC(=O)C1C2c3ccccc3OC1(C)N=c1s/c(=C/c3cnn(C)c3C)c(=O)n12` (stereo not drawn), the IC50 is 0.97 µM and the IC90 came out at 13.1 µM.

`COc1ccccc1/C(C)=N/NC(=S)NCc1ccccc1`: the IC50 is 23.3 µM and the concentration for an effect of 90% (IC90) came out at 26.6 µM.

As for `COc1cccc2sc(Nc3nnc(-c4cccs4)o3)nc12`, the half-maximal inhibitory concentration (IC50) was 23.9 µM and the IC90 was 27.1 µM.

On to `O=C(Nc1ncc(Cc2ccccc2Cl)s1)C1=NCCN1`, for which the half-maximal inhibitory concentration (IC50) was 0.43 µM and the IC90 was 92.9 µM.

With `Clc1ccc(SCc2cc(N3CCOCC3)nc(-c3ccccn3)n2)cc1`, the 50% inhibitory concentration (IC50) was 0.92 µM and the 90% effect concentration (IC90) was 6.27 µM.

On to `O=C(Nc1ccc(OCC(F)(F)C(F)F)c(C(F)(F)F)c1)c1ccc(Cl)cc1`, for which the IC50 is 35.6 µM and the IC90 turned out to be 47.1 µM.

For `Cc1ccc(Cn2nnnc2CN2CCC(c3nc4ccc(Cl)cc4[nH]3)CC2)cc1`, the IC50 is 26 µM and the concentration for an effect of 90% (IC90) stood at 35.9 µM.

As for `C/C(=N\NC(=O)c1nnn(-c2nonc2N)c1CN(C)c1ccccc1)c1ccccn1`, the IC50 was 8.5 µM and the concentration for an effect of 90% (IC90) amounted to 15.7 µM.

As for `CC(=O)/C=C(\C)Nc1ccccc1O`, the half-maximal inhibitory concentration (IC50) was 3.57 µM and the IC90 turned out to be 6.18 µM.

`O=C(NC(=S)Nc1ccc(N2CCCCC2)c(Cl)c1)c1cccs1`: the 50% inhibitory concentration (IC50) is 20.2 µM and the IC90 came to 27.1 µM.

On to `C=CCc1c(C)nc(C)nc1N/N=C/c1ccccc1O`, for which the IC50 is 2.25 µM and the IC90 is 4.08 µM.

`Cc1ccc(Nc2nc(CSc3nnc(-c4cccs4)o3)cs2)cc1`: the IC50 was 40.7 µM and the concentration for an effect of 90% (IC90) is over 100 µM.

`O=C(Nc1nc2nc(-c3ccccc3)cc(=O)n2[nH]1)c1ccccc1`: the IC50 is 17.8 µM and the 90% effect concentration (IC90) was over 100 µM.

`COC(=O)c1cc(-c2cccc(OC)c2)on1`: the 50% inhibitory concentration (IC50) was 0.37 µM and the IC90 was over 100 µM.

`COc1ccc(-c2cn3cc([N+](=O)[O-])ccc3n2)cc1OC`: the IC50 is 17.8 µM and the IC90 was over 100 µM.

Turning to `CC/C(C)=N/NC(=S)NCc1ccco1`, the concentration for half-maximal inhibition (IC50) is 47.5 µM and the 90% effect concentration (IC90) amounted to 53.8 µM.

In the case of `O=C(c1ccc([N+](=O)[O-])s1)N1CCN(c2ccc(C(F)(F)F)cn2)CC1`, the IC50 is under 0.2 µM and the concentration for an effect of 90% (IC90) is under 0.2 µM.

For the compound `CCCOc1ccc(C(=O)NC(=S)NCc2cccnc2)cc1`, the half-inhibitory concentration (IC50) was 21.2 µM and the 90% effect concentration (IC90) came to 28 µM.
